Test results published in publication PMC11356873, “Trolox, Ferulic, Sinapic, and Cinnamic Acid Derivatives of Proline and GABA with Antioxidant and/or Anti-Inflammatory Properties” (Molecules, 2024).

Legend:
acetylcholinesterase = biological target: T1, acetylcholinesterase (Rattus norvegicus, UniProt P37136); assay: Acetylcholinesterase inhibition (acetylthiocholine hydrolysis, rat brain homogenate); format: biochemical; settings: acetylthiocholine 0.5 mM, after 7 min of incubation
T1 construct: mixed with brain homogenate (20 mg of tissue per mL) from untreated rats; from tissue; host or cells: rat brain homogenate
T1 sequence (P37136 32-614): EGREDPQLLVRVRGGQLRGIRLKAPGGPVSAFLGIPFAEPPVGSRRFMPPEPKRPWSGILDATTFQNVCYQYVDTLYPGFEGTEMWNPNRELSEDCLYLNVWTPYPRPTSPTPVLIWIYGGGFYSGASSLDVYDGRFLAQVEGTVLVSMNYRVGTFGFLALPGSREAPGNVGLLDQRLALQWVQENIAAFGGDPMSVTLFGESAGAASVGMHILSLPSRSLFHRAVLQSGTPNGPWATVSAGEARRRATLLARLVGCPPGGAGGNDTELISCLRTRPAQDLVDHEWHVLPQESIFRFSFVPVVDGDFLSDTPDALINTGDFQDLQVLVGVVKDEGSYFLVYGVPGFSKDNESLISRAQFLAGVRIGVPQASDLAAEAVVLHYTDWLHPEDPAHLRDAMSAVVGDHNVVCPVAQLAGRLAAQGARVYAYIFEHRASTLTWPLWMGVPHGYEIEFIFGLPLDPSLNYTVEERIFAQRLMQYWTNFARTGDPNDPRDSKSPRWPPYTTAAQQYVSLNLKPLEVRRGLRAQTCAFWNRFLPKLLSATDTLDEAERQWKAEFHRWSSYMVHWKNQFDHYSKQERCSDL
Experimental: The tested compounds, dissolved in 60% ethanol, were mixed with brain homogenate (20 mg of tissue per mL) from untreated rats (in 0.1 M phosphate buffer with a pH of 8) and acetylthiocholine (0.5 mM).

soybean lipoxygenase = biological target: T2, soybean lipoxygenase (Glycine max, UniProt P08170); assay: Soybean lipoxygenase inhibition; format: biochemical
T2 construct: purchased Sigma (St. Louis, MO, USA)
T2 sequence (P08170 1-839): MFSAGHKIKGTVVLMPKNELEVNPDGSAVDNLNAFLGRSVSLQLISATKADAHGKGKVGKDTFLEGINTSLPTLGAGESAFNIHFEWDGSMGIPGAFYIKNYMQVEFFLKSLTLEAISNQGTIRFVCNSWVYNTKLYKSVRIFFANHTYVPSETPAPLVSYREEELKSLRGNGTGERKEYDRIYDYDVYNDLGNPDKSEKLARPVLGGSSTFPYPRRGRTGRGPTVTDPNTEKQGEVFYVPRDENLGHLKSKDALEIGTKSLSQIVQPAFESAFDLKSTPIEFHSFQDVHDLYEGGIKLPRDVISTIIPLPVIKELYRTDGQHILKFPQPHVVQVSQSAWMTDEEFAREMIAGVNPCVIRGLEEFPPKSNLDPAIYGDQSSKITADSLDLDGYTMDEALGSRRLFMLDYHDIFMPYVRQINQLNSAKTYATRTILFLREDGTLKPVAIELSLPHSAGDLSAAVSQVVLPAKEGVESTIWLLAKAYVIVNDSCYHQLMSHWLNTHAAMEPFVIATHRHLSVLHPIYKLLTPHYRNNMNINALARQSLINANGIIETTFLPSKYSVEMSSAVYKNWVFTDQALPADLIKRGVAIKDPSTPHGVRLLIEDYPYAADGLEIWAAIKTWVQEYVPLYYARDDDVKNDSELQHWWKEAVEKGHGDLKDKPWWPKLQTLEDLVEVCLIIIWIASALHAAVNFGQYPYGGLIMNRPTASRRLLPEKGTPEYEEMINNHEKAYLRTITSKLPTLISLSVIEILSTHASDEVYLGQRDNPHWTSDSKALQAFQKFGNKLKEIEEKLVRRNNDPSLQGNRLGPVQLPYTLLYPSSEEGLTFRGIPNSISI
Experimental: The reaction mixture (total volume of 3 mL) contained 100 μL of the test compounds (100 μM) or the solvent (absolute ethanol, control), 200 μL of soybean LOX (250 u/mL, in a 0.9% NaCl solution), and 2.6 mL of Tris–HCl buffer with a pH of 9.0. The reaction was initiated by the addition of 100 μL sodium linoleate (100 μM) in the sample mixture (with an equal volume of buffer added to the reference solution). The reaction was followed for 7 min at 28 °C, and the absorbance (234 nm) of a conjugated diene structure was recorded.

[1] = Interaction with the stable free radical DPPH; settings: for Interaction with DPPH (in words): 25-200 μΜ; for % Interaction with DPPH / Time to completion of the reaction with DPPH: DPPH 200 μΜ; for % Interaction with DPPH: after 30 min of incubation
Experimental: The tested compounds, dissolved in absolute ethanol at final concentrations of 25 up to 200 μΜ, were mixed with DPPH and dissolved in the same solvent at a final concentration of 200 μΜ. The absorbance at 517 nm was recorded every 5 min for 30 min [41].

Bovine serum albumin = Bovine serum albumin (Bos taurus, UniProt P02769); assay: Inhibition of fructose/copper-induced oxidative protein glycation; format: biochemical; settings: concentration of 1mM, after 72 h of incubation
Chain of Bovine serum albumin (P02769 25-607): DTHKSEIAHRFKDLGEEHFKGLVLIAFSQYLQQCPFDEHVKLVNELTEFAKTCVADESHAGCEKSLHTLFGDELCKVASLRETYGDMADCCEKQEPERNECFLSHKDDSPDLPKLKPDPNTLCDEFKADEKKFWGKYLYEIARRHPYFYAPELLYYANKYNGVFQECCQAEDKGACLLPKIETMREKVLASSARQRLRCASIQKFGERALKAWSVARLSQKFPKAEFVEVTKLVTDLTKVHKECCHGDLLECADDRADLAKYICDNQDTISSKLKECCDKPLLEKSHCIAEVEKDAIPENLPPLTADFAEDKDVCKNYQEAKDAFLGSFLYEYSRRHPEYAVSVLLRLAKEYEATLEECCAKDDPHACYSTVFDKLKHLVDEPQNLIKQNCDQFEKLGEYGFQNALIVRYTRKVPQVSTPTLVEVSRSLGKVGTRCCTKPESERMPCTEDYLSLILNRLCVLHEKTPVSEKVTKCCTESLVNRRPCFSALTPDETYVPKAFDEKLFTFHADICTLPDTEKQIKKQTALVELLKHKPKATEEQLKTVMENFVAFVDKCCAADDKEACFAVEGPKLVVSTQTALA
Experimental: The purification of the glycation product was based on protein precipitation and washing with trichloroacetic acid (TCA). The concentration of the glycation-modified protein was estimated by fluorescence measurements (excitation of 340 nm, emission of 410 nm). Incubations performed under the same conditions, yet in the absence of fructose, were used as a control. All the fluorescence measurements were expressed relatively to the standard quinine sulphate solution (1 μg/mL).

[2] = system: lipid peroxidation of rat hepatic microsomal membranes; assay: Inhibition of lipid peroxidation of rat hepatic microsomal membranes (TBA-reactive material); settings: for IC50, lipid peroxidation / IC50: rat hepatic microsomal membranes, after 45 min of incubation; for IC50: read-out: IC50, lipid peroxidation

Row | SMILES | IC50 (acetylcholinesterase) [µM] | inhibition at 100 µM (soybean lipoxygenase) [%] | Interaction with DPPH (in words) [1] | % Inhibition of protein glycation (Bovine serum albumin) | IC50, lipid peroxidation [2] | IC50 [2] [µM] | IC50, acetylcholinesterase (acetylcholinesterase) | % Interaction with DPPH ([1]; compound 25 μΜ) [%] | % Interaction with DPPH ([1]; compound 50 μΜ) [%] | % Interaction with DPPH ([1]; compound 100 μΜ) [%] | Time to completion of the reaction with DPPH ([1]; compound 200 μΜ) | % Interaction with DPPH ([1]; compound 200 μΜ) [%] | inhibition at 1000 µM (Bovine serum albumin) [%] | Activity against lipid peroxidation relative to Trolox ([2]; comparison of IC50 values)
1 | COC(=O)CCCNC(=O)C1CCCN1C(=O)/C=C/c1ccc(OC)c(OC)c1 (stereo not shown) [Compound 3c, (E)-methyl 4-(1-(3-(3,4-dimethoxyphenyl)acryloyl)pyrrolidine-2-carboxamido)butanoate] | 284 | 32 | could not interact with DPPH at all | did not exert any inhibition and - | could not inhibit lipid peroxidation | > 1000 |  |  |  |  |  |  |  | 
2 | COC(=O)CCCNC(=O)C1CCCN1C(=O)C1(C)CCc2c(C)c(O)c(C)c(C)c2O1 (stereo not shown) [Compound 5c, Methyl 4-(1-(6-hydroxy-2,5,7,8-tetramethylchroman-2-carbonyl)pyrrolidine-2-carboxamido)-butanoate] |  | 26 |  |  |  | 8 | could not inhibit the enzyme and no inhibitory activity and - | 28 | 54 | 87 | completed in the first five minutes | 89 | 37 | about three times more active than Trolox
3 | COC(=O)CCCNC(=O)C1CCCN1C(=O)/C=C/c1ccc(O)c(OC)c1 (stereo not shown) [Compound 1c, (E)-methyl 4-(1-(3-(4-hydroxy-3-methoxyphenyl)acryloyl)pyrrolidine-2-carboxamido)butanoate] | 219 | 36 |  |  |  | 839 |  | 10 | 24 | 37 | about 15 min | 58 | 41 | 
4 | COC(=O)CCCNC(=O)C1CCCN1C(=O)/C=C/c1ccccc1 (stereo not shown) [Compound 4c, (E)-methyl 4-(1-cinnamoylpyrrolidine-2-carboxamido)butanoate] |  | 40 | could not interact with DPPH at all | did not exert any inhibition and - | could not inhibit lipid peroxidation | > 1000 | - |  |  |  |  |  |  | 
5 | Cc1c(C)c2c(c(C)c1O)CCC(C)(C(=O)O)O2 (stereo not shown) [Trolox, 6-hydroxy-2,5,7,8-tetramethylchroman-2-carboxylic acid] |  |  |  |  |  | 25 |  | 19 | 38 | 90 |  | 92 |  | 
6 | N=C(N)NN [Aminoguanidine, reference compound] |  |  |  | 56% |  |  |  |  |  |  |  |  |  | 
7 | COC(=O)CCCNC(=O)C1CCCN1C(=O)/C=C/c1cc(OC)c(O)c(OC)c1 (stereo not shown) [Compound 2c, (E)-methyl 4-(1-(3-(4-hydroxy-3,5-dimethoxyphenyl)-acryloyl)pyrrolidine-2-carboxamido)-butanoate] | 298 | 40 |  |  |  | 290 |  | 17 | 36 | 64 | completed in the first five minutes | 85 | 48 | 
